Experimental data as given in patent US12171755B2, “PAPD5 inhibitors and methods of use thereof” (Children's Medical Center Corporation, priority 2017, dated 2024).

Target: T1, PAPD5 (Homo sapiens, UniProt Q8NDF8)
T1 construct: made in house
Assay: High-throughput luminescence (KinaseGlo) RNA polyadenylation assay, ATP utilization by recombinant PAPD5
Format: biochemical
Conditions: Table 4 (entries of Table 5), ratio of luminescence with inhibitor to DMSO; for Fold-change determined at compound concentration 33 μM: 33 μM compound; for Fold-change determined at compound concentration 100 μM: 100 μM compound, higher = higher inhibition
Description: Optimal conditions for an in vitro RNA polyadenylation assay using recombinant PAPD5, ATP and an oligonucleotide substrate were identified. The HTS assay involved ATP utilization by PAPD5, which reads out as a decreased luminescence signal produced by luciferase (KinaseGlo, Promega, Madison, WI).
100 nl of compound dissolved in DMSO was transferred to each well of the assay plate via pin transfer. For negative control wells, DMSO alone was added. Plates were gently vortexed for 5 seconds, then incubated for 2 hours at room temperature.
After 2 hours, 5 ul of luciferase (Promega KinaseGlo, Madison, WI) was added using a MultiDrop Combi (Thermo Fisher Scientific, Waltham, MA). The mixture was gently vortexed for 5 seconds and incubated for 10 minutes at room temperature. Plates were spun for 1 minute prior to luminescence measurements. Luminescent measurements were quantitated using a PerkinElmer EnVision™ plate reader.
˜100,000 compounds from various libraries at the ICCB-Longwood were screened in this manner in duplicate.
The fold change was the ratio of luminescence from a sample with inhibitor compared to that with DMSO. Thus, a higher number indicates higher inhibition.

T1 sequence (Q8NDF8 68-698 isoform Q8NDF8-5): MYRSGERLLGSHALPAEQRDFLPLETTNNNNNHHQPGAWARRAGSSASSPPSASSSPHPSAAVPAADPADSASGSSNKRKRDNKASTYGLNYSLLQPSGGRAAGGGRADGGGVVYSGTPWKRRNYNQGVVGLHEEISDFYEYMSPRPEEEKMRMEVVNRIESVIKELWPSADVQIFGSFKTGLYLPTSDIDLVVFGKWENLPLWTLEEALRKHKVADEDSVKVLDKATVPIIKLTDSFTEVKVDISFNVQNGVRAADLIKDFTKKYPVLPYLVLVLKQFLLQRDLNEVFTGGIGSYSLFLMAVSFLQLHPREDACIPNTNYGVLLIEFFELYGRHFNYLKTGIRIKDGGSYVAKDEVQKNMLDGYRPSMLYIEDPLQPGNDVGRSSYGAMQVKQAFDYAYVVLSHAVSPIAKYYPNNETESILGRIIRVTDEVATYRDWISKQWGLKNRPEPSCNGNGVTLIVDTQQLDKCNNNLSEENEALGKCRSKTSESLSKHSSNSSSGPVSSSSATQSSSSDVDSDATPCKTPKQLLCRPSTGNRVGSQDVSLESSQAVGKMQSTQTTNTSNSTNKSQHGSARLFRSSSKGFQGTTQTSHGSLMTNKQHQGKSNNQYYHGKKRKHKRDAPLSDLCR

SMILES: O=C(NC1CC1)c1ccc(Cn2c(SCc3ccccc3Cl)nc3ccncc32)cc1 [Entry 202, 4-({2-[(2-chlorobenzyl)thio]-3H-imidazo[4,5-c]pyridin-3-yl]methyl)-N-cyclopropylbenzamide]
- Fold-change determined at compound concentration 33 μM: 1.164
- Fold-change determined at compound concentration 100 μM: 1.361

SMILES: NC(=O)C1CCN(c2nc3c(S(=O)(=O)c4ccccc4)nnn3c3ccsc23)CC1 [Entry 44, 1-(3-(phenylsulfonyl)thieno[2,3-e][1,2,3]triazol[1,5-a]pyrimidin-5-yl)piperidine-4-carboxamide]
- Fold-change determined at compound concentration 33 μM: 1.273
- Fold-change determined at compound concentration 100 μM: 1.651

SMILES: CC(C)CCn1c(=O)c2ccccc2n2c(=S)[nH]nc12 [Entry 74, 1-mercapto-4-(3-methylbutyl)[1,2,4]triazolo[4,3-a]quinazolin-5(4H)-one]
- Fold-change determined at compound concentration 33 μM: 1.372
- Fold-change determined at compound concentration 100 μM: 1.87

SMILES: CCn1c(=S)sc2c(=O)n3[nH]c(=O)c4ccccc4c3nc21 [Entry 231, 11-ethyl-10-thioxo-10,11-dihydro-6H-[1,3]thiazolo[4′,5′:4,5]pyrimido[2,1-a]phthalazine-5,8-dione]
- Fold-change determined at compound concentration 33 μM: 1.068
- Fold-change determined at compound concentration 100 μM: 1.36

SMILES: CCn1cnc2c(=O)oc3ccc(S(=O)(=O)Nc4ccc(OC)cc4)cc3c21 [Entry 119, 1-ethyl-N-(4-methoxyphenyl)-4-oxochromeno[3,4-d]imidazole-8-sulfonamide]
- Fold-change determined at compound concentration 33 μM: 1.319
- Fold-change determined at compound concentration 100 μM: 1.366

SMILES: c1cc(CNc2nc(C3CC3)nc3c2CCC3)ccn1 [Entry 45, N-(2-cyclopropyl-6,7-dihydro-5H-cyclopenta[d]pyrimidin-4-yl)-N-(4-pyridylmethyl)amine]
- Fold-change determined at compound concentration 33 μM: 1.429
- Fold-change determined at compound concentration 100 μM: 1.936

SMILES: Nc1c2ccccc2nc2ccccc12 [Entry 30, acridin-9-amine]
- Fold-change determined at compound concentration 33 μM: 1.313
- Fold-change determined at compound concentration 100 μM: 1.944

SMILES: O=S(=O)(NC1=NC2=NC(c3ccccc3)=CC(c3ccc(F)cc3)N2N1)c1ccc(Cl)cc1 (stereo not drawn) [Entry 157, 4-chloro-N-[7-(4-fluorophenyl)-5-phenyl-1,7-dihydro-[1,2,4]triazolo[1,5-a]pyrimidin-2-yl]benzenesulfonamide]
- Fold-change determined at compound concentration 33 μM: 1.059
- Fold-change determined at compound concentration 100 μM: 1.203

SMILES: c1ccc(CC2CCN(c3nnc(Cc4ccncc4)c4ccccc34)CC2)cc1 [Entry 55, 1-(4-benzylpiperidin-1-yl)-4-(pyridin-4-ylmethyl)phthalazine]
- Fold-change determined at compound concentration 33 μM: 1.262
- Fold-change determined at compound concentration 100 μM: 1.592

SMILES: COCc1c(Br)c(C)nc2sc3c(=O)n(-c4ccccc4C(=O)OC)nnc3c12 [Entry 167, methyl 2-(8-bromo-9-(methoxymethyl)-7-methyl-4-oxopyrido[3′,2′:4,5]thieno[3,2-d][1,2,3]triazin-3(4H)-yl)benzoate]
- Fold-change determined at compound concentration 33 μM: 1.413
- Fold-change determined at compound concentration 100 μM: 1.995

SMILES: Cc1c(C(=O)NCc2ccccc2)oc2c1-c1[nH]ncc1CC2 [Entry 175, N-benzyl-8-methyl-4,5-dihydro-1H-furo[2,3-g]indazole-7-carboxamide]
- Fold-change determined at compound concentration 33 μM: 1.094
- Fold-change determined at compound concentration 100 μM: 1.352

SMILES: Cc1ccccc1CNC(=O)Cn1cc2c(n1)-c1c(oc(C(=O)N3CCCC3)c1C)CC2 [Entry 170, N-[(2-methylphenyl)methyl]-2-[8-methyl-7-(pyrrolidine-1-carbonyl)-4,5-dihydrofuro[2,3-g]indazol-2-yl]acetamide]
- Fold-change determined at compound concentration 33 μM: 1.302
- Fold-change determined at compound concentration 100 μM: 1.816

SMILES: O=C(O)c1cc(-c2ccc(C(F)(F)F)cc2)nc2n[nH]c(-c3ccccc3)c12 [Entry 182, 3-phenyl-6-[4-(trifluoromethyl)phenyl]-2H-pyrazolo[3,4-b]pyridine-4-carboxylic acid]
- Fold-change determined at compound concentration 33 μM: 1.1781
- Fold-change determined at compound concentration 100 μM: 1.35

SMILES: Cc1ccc(S(=O)(=O)NCc2ccc(-c3nn4cnnc4s3)cc2)cc1 [Entry 216, 4-methyl-N-[[4-([1,2,4]triazolo[3,4-b][1,3,4]thiadiazol-6-yl)phenyl]methyl]benzenesulfonamide]
- Fold-change determined at compound concentration 33 μM: 1.103
- Fold-change determined at compound concentration 100 μM: 1.239

SMILES: COc1cccc(CNC2=Nc3ccccc3NC23CCCCC3)c1 [Entry 63, N-[(3-methoxyphenyl)methyl]spiro[4H-quinoxaline-3,1′-cyclohexane]-2-amine]
- Fold-change determined at compound concentration 33 μM: 1.113
- Fold-change determined at compound concentration 100 μM: 1.417

SMILES: Cc1cc(C)c2c(=O)cc(C(=O)Nc3ccc(S(=O)(=O)Nc4onc(C)c4C)cc3)oc2c1 [Entry 115, N-[4-[(3,4-dimethyl-1,2-oxazol-5-yl)sulfamoyl]phenyl]-5,7-dimethyl-4-oxochromene-2-carboxamide]
- Fold-change determined at compound concentration 33 μM: 1.316
- Fold-change determined at compound concentration 100 μM: 1.777

SMILES: CCCCn1c(=O)c2sccc2n2c(=S)[nH]nc12 [Entry 71, 4-butyl-1-thioxo-2,4-dihydrothieno[2,3-e][1,2,4]triazolo[4,3-a]pyrimidin-5(1H)-one]
- Fold-change determined at compound concentration 33 μM: 1.173
- Fold-change determined at compound concentration 100 μM: 1.531

SMILES: CC(C)c1nnc(NC(=O)c2cc(=O)c3ccc(Br)cc3o2)s1 [Entry 121, 7-bromo-4-oxo-N-(5-propan-2-yl-1,3,4-thiadiazol-2-yl)chromene-2-carboxamide]
- Fold-change determined at compound concentration 33 μM: 1.118
- Fold-change determined at compound concentration 100 μM: 1.26

SMILES: Cc1cc(C)c2c(=O)cc(CSc3nnc(-c4ccccc4)n3C)[nH]c2c1 [Entry 102, 5,7-dimethyl-2-[(4-methyl-5-phenyl-1,2,4-triazol-3-yl)sulfanylmethyl]-1H-quinolin-4-one]
- Fold-change determined at compound concentration 33 μM: 1.066
- Fold-change determined at compound concentration 100 μM: 1.268

SMILES: COc1ccc(-c2[nH]nc3nc(-c4cc(Br)ccc4OC)cc(C(=O)O)c23)cc1 [Entry 179, 6-(5-bromo-2-methoxyphenyl)-3-(4-methoxyphenyl)-2H-pyrazolo[3,4-b]pyridine-4-carboxylic acid]
- Fold-change determined at compound concentration 33 μM: 1.112
- Fold-change determined at compound concentration 100 μM: 1.309

SMILES: COc1ccc(C(=O)N2CCc3ccc(CNS(C)(=O)=O)cc32)cc1 [Entry 221, N-[[1-(4-methoxybenzoyl)-2,3-dihydroindol-6-yl]methyl]methanesulfonamide]
- Fold-change determined at compound concentration 33 μM: 1.084
- Fold-change determined at compound concentration 100 μM: 1.585
